Assay results reported in patent US8129409B2, “Piperidine derivatives and cosmetic compositions thereof” (L'Oreal, priority 2004, dated 2012).

What was measured:
[1] = test system: human striated muscle cells innervated with explants of rat embryonic rachidian ganglia and spinal cord; assay: nerve/muscle coculture model, muscle fibre contractions; format: cell-based
Protocol: The compound of Example 1 was tested on a model of nerve/muscle coculture, which makes it possible to recreate a motor arc by innervating human striated muscle cells with explants of rat embryonic rachidian ganglia and spinal cord.
Human muscle cells, obtained from samples of striated muscle from healthy donors, are inoculated into wells of cross section 1.8 cm^2 (24-well culture dishes). After culturing for ten days, these cells form a monolayer and fuse. At this stage, explants of embryonic spinal cord from a 13 day-old rat, containing the rachidian ganglia, are placed on the culture.
The growth of the neurites is visible beyond the spinal cord explant after one day of culture. The first contractions of the muscle fibres are observed after five to six days of coculture, and after three weeks all the muscle fibres in the region of the explants contract.
The cocultures are used after 21 days, when the muscle fibres are striated and contain mature differentiated neuromuscular junctions.
A muscle fibre showing regular contractions (at least 60 contractions per minute) is then selected from three different culture wells and the number of contractions is counted over 30 seconds. The test compound, diluted in DMSO, is then incubated for 60 seconds in these wells, at a concentration of 10^−5 M. At the end of incubation, the number of contractions is again counted over 30 seconds. […]

[2] = anti-wrinkle activity in vivo; details: no details given

## CN1C(=O)CN=C(c2ccccc2)c2cc(Cl)ccc21 [diazepam]
[1]; as demonstrated by the Applicant, no concentration given
  effect on muscle fibre contractions in the nerve/muscle coculture model: inhibited muscle fibre contractions
[2]
  anti-wrinkle activity in vivo: demonstrated in vivo

## c1ccc(CCCC2CCN(CCCc3ccccc3)CC2)cc1 [Example 1, 1,4-bis(3-phenylpropyl)piperidine]
[1]; 10^−5 M, diluted in DMSO, 60 seconds incubation (one minute after adding), contractions counted over 30 seconds, triplicate
  contractions of the fibre as % of its contractions before addition of the compound: 55%
